Molecules are shown by their SMILES.

Broadly, the IC50 is the midpoint of a concentration-inhibition curve. A word on the AUC(0-t): it is the area under the concentration-time curve up to a stated or last time point. In general, pKa refers to the pH at which an ionisable group is half protonated. By inhibition is commonly meant the share of the control response that was lost under treatment.

One data set concerns the target Cytochrome P450 2D6 (Homo sapiens, UniProt P10635). Nature of the data set: Inhibition of CYP2D6 in human liver microsomes after 30 secs by LC/MS/MS analysis. The data set is classed as ADME. On the technique in general: Microsomes from liver hold many membrane-bound enzymes, among them those of drug oxidation.
A short description of data set [1]: Clearance in human hepatocytes assessed per million cells by HPLC/atmospheric pressure chemical ionization/MS analysis. The data set is classed as ADME, cell-based, Hepatocyte. To be noted: read-out: CLH.
A short description of data set [2]: Ratio of drug level in brain to plasma in mouse at 6 hrs. It counts as ADME, organism-based. To be noted: brain and plasma, read-out: BPR.
Data set [3] has as its system Mus musculus. Briefly: Antialzheimer activity in B6C3F1 mouse assessed as amyloid beta 40 level in plasma at 10 mg/kg, po administered as single dose after 3 hrs relative to control. The data set is classed as functional.
A further data set addresses Cytochrome P450 2C9 (Homo sapiens, UniProt P11712). Nature of the data set: Inhibition of CYP2C9 in human liver microsomes after 30 secs by LC/MS/MS analysis. The data set is classed as ADME.
Data set [4] addresses T1, Cytochrome P450 3A4 (Homo sapiens, UniProt P08684). Nature of the data set: Inhibition of CYP3A4 in human liver microsomes preincubated for 30 mins after 30 secs by LC/MS/MS analysis. The data set is classed as ADME.
The target of data set [5] is T1, Cytochrome P450 3A4. Nature of the data set: Inhibition of CYP3A4 in human liver microsomes after 30 secs by LC/MS/MS analysis. The data set is classed as ADME.
The nature of data set [6]: AUC (0 to 6 hrs) in mouse at 10 mg/kg, po by LC/MS/MS analysis. It counts as ADME, organism-based. Further details: time < 6 hr, dose 10 mg/kg, route oral. The settings on record: in vivo.
Data set [7] in a line: Clearance in monkey hepatocytes assessed per million cells by HPLC/atmospheric pressure chemical ionization/MS analysis. To be noted: rhesus monkey, read-out: CLH. It counts as ADME, cell-based, Macaca mulatta, Hepatocyte.
Data set [8] in a line: Clearance in rat hepatocytes assessed per million cells by HPLC/atmospheric pressure chemical ionization/MS analysis. To be noted: read-out: CLH. It counts as ADME, cell-based, Hepatocyte.
For data set [9], the system named is Mus musculus. Nature of the data set: Antialzheimer activity in B6C3F1 mouse assessed as amyloid beta 40 level in cortex at 10 mg/kg, po administered as single dose after 3 hrs relative to control. The data set is classed as functional.
The nature of data set [10]: Clearance in dog hepatocytes assessed per million cells by HPLC/atmospheric pressure chemical ionization/MS analysis. It counts as ADME, cell-based, Canis lupus familiaris, Hepatocyte. To be noted: read-out: CLH.
Data set [11] is described as follows: Inhibition of gamma-secretase in HEK293 cell membranes expressing human APP Swedish/London double mutant assessed as reduction in amyloid beta 40 formation after 1 hr by electrochemiluminescence based immunoassay.
Data set [12] has as its system Mus musculus. Briefly: Antialzheimer activity in B6C3F1 mouse assessed as reduction in amyloid beta 40 levels in plasma at 30 mg/kg, po after 6 hrs. The data set is classed as functional. Also on record: scale not given: the % may be the effect or the level left.
Data set [13] in a line: Drug metabolism in rat assessed as N-demethylation. It counts as ADME.
Data set [14] is described as follows: Drug metabolism in rat assessed as beta-elemination. The data set is classed as ADME.
The test system of data set [15] is Mus musculus. Nature of the data set: Antialzheimer activity in B6C3F1 mouse assessed as reduction in amyloid beta 40 levels in cortex at 30 mg/kg, po after 24 hrs. The data set is classed as functional. Also on record: scale not given: the % may be the effect or the level left.
Data set [16] deals with Mus musculus. Briefly: Antialzheimer activity in B6C3F1 mouse assessed as reduction in amyloid beta 40 levels in cortex at 30 mg/kg, po after 12 hrs. It counts as functional. Also on record: scale not given: the % may be the effect or the level left.
The subject of data set [17] is Mus musculus. Briefly: Antialzheimer activity in B6C3F1 mouse assessed as amyloid beta 40 levels in plasma at 30 mg/kg, po after 24 hrs. The data set is classed as functional.
The test system of data set [18] is Mus musculus. Briefly: Antialzheimer activity in B6C3F1 mouse assessed as reduction in amyloid beta 40 levels in cortex at 30 mg/kg, po after 6 hrs. Further details: scale not given: the % may be the effect or the level left. The data set is classed as functional.
A short description of data set [19]: Dissociation constant, pKa of the compound. The data set is classed as physicochemical.
Data set [20] concerns Mus musculus. Nature of the data set: Antialzheimer activity in B6C3F1 mouse assessed as reduction in amyloid beta 40 levels in plasma at 30 mg/kg, po after 12 hrs. The data set is classed as functional. Also on record: scale not given: the % may be the effect or the level left.
For data set [21], the target named is T2, hERG (KCNH2) (Homo sapiens, UniProt Q12809). Nature of the data set: Inhibition of human ERG at 1 uM by Thallium flux assay.
Data set [22] deals with T2, hERG (KCNH2). Briefly: Inhibition of human ERG at 10 uM by thallium flux assay.
Data set [23] can be described thus: Kinetic solubility of compound. The settings on record: read-out: Kinetic_solubility. The data set is classed as physicochemical.

T1 sequence (P08684 whole entry): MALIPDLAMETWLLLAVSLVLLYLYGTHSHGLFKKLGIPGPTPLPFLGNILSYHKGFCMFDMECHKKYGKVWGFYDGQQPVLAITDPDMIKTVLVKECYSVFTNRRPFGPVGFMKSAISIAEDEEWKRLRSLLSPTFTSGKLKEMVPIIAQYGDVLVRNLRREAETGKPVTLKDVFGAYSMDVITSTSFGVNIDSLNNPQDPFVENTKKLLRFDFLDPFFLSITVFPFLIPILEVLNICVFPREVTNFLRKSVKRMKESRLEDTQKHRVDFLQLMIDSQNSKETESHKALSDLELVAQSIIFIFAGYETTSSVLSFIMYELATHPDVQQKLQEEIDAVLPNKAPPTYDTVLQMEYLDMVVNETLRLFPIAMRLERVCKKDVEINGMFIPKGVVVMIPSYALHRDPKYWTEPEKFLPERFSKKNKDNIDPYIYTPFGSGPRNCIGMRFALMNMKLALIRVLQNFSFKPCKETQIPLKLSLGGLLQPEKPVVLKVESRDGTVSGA
Sequence of Cytochrome P450 2D6 (P10635 whole entry): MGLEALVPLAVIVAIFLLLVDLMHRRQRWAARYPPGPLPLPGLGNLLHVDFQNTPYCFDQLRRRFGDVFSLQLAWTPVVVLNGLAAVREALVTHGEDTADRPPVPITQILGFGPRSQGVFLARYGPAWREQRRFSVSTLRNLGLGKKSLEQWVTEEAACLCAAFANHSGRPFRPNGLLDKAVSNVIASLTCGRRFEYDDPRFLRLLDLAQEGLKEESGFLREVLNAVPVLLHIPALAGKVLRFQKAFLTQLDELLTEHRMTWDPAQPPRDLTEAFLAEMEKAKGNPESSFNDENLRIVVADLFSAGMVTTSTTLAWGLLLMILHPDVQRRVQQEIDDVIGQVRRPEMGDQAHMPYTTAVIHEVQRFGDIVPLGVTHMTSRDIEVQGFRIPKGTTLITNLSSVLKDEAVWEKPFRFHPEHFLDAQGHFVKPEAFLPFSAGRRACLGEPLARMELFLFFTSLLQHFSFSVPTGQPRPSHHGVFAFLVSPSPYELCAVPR
Sequence of Cytochrome P450 2C9 (P11712 whole entry): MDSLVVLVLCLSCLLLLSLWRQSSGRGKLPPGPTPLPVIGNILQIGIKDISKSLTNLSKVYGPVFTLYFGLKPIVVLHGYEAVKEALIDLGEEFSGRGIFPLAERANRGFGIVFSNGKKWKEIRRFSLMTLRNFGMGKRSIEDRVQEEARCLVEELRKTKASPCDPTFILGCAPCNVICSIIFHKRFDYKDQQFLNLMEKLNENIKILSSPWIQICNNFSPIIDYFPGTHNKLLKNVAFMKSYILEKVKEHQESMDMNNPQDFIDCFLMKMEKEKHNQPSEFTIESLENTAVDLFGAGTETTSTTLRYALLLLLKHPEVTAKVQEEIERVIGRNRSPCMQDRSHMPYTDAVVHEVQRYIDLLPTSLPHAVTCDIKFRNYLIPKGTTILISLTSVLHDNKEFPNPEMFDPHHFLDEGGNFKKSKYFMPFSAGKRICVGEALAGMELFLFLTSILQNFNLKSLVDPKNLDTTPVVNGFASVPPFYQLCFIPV
T2 sequence (Q12809 whole entry): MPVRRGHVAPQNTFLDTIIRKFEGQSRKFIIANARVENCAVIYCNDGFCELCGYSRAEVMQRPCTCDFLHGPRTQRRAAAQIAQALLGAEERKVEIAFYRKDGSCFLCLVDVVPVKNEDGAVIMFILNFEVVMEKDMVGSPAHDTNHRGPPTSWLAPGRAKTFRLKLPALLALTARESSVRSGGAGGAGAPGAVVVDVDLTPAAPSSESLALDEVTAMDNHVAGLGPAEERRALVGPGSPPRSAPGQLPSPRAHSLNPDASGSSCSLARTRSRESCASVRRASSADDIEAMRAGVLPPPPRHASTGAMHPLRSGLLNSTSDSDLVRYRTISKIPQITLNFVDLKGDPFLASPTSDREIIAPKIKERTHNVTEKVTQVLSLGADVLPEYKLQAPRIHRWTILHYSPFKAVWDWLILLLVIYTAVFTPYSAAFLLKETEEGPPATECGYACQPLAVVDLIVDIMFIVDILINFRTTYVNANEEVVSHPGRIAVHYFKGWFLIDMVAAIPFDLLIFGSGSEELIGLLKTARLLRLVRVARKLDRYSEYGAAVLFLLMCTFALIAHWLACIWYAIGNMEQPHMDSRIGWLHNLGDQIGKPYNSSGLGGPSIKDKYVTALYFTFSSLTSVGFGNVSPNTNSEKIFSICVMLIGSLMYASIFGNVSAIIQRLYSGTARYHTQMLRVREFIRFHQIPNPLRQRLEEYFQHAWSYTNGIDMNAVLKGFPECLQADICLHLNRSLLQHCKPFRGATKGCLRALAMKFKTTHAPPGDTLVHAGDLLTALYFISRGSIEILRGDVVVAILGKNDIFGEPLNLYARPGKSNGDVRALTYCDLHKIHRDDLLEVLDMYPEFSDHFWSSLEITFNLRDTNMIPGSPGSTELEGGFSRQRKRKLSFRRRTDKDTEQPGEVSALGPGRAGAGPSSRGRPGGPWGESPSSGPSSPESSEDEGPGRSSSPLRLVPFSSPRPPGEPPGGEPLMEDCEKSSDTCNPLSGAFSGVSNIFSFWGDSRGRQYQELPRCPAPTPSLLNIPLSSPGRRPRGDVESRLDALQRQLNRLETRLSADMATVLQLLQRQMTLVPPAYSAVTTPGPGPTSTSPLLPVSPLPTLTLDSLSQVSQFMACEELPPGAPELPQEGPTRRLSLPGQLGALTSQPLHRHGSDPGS

For the compound `O=S(=O)(CC[C@@H]1OCC[C@@]2(S(=O)(=O)c3ccc(Cl)cc3)c3c(F)ccc(F)c3OC[C@@H]12)[C@@H]1CCNC1`, the 50% inhibitory concentration (IC50) was above 20 µM against Cytochrome P450 2D6; above 20 µM at Cytochrome P450 2C9; 3.7 µM on Cytochrome P450 3A4 [4]; 6.1 µM against Cytochrome P450 3A4 [5]; 0.0051 µM in data set [11]. For the same compound, the hepatocyte CLint in data set [1] stood at 14.5 µL/min/1e6 cells; in data set [7], 38.8 µL/min/1e6 cells; in data set [8], 13.9 µL/min/1e6 cells; in data set [10], 17.9 µL/min/1e6 cells. For the same compound, the Kp at 6 h in data set [2] was 2. The Activity is -90% in the data set on Mus musculus [3] and -73% in the data set with Mus musculus [9]. The area under the curve AUC(0-t) at 6 h in [6] amounted to 1.17 µM·h.
Consider `O=S(=O)(CC[C@@H]1OCC[C@@]2(S(=O)(=O)c3ccc(Cl)cc3)c3c(F)ccc(F)c3OC[C@@H]12)C[C@@H]1CCCN1`, for which the IC50 is above 20 µM against Cytochrome P450 2D6; above 20 µM at Cytochrome P450 2C9; 1 µM at Cytochrome P450 3A4 [4]; above 20 µM against Cytochrome P450 3A4 [5]; 0.0007 µM in data set [11]. The hepatocyte CLint worked out at 5.6 µL/min/1e6 cells in data set [1], 26.7 µL/min/1e6 cells in [7], 15.2 µL/min/1e6 cells in data set [8] and 12.5 µL/min/1e6 cells in data set [10]. Moreover, in [2], the Kp at 6 h came out at 0.6. Also, the Activity in the data set with Mus musculus [3] is -57%; in the data set with Mus musculus [9], -48%. Also, in [6], the AUC(0-t) at 6 h was found to be 0.674 µM·h.
In the case of `CNCCS(=O)(=O)CC[C@@H]1OCC[C@@]2(S(=O)(=O)c3ccc(Cl)cc3)c3c(F)ccc(F)c3OC[C@@H]12`, the half-inhibitory concentration (IC50) against Cytochrome P450 2D6 was above 20 µM; on Cytochrome P450 2C9 it was above 20 µM; against Cytochrome P450 3A4 [4], 8.4 µM; on Cytochrome P450 3A4 [5] it was above 20 µM; in data set [11] it was 0.0041 µM. The hepatocyte CLint in [1] stood at 17.3 µL/min/1e6 cells; in data set [7] it was 40.5 µL/min/1e6 cells; in data set [8], 22.3 µL/min/1e6 cells; in [10] it was 11.5 µL/min/1e6 cells. Also, the Kp at 6 h in [2] stood at 0.4. Further, the Activity in the data set on Mus musculus [12] is 93%; with Mus musculus [3] it was -44%; in the data set on Mus musculus [15] it was 37%; in the data set on Mus musculus [16], 66%; in the data set with Mus musculus [17] it was 50%; in the data set with Mus musculus [18], 73%. Also, the Activity with Mus musculus [20] is recorded as 35%; with Mus musculus [9], -61%. Further, the Drug metabolism entry in [13] and in data set [14] was “Metabolite_Notdetected” throughout. The compound also registered a pKa in data set [19] of 7.7. This compound returned an AUC(0-t) at 6 h in data set [6] of 0.532 µM·h. Besides, on hERG (KCNH2) [21], the inhibition at 1 µM is 1%. At hERG (KCNH2) [22], this compound showed an inhibition at 10 µM of 21%.
On to `CNC(C)(C)CCS(=O)(=O)CC[C@@H]1OCC[C@@]2(S(=O)(=O)c3ccc(Cl)cc3)c3c(F)ccc(F)c3OC[C@@H]12`, for which the half-maximal inhibitory concentration (IC50) against Cytochrome P450 2D6 was above 20 µM; against Cytochrome P450 2C9, above 20 µM; against Cytochrome P450 3A4 [4], above 20 µM; against Cytochrome P450 3A4 [5], above 20 µM; in data set [11] it was 0.0022 µM. The hepatocyte CLint in data set [1] worked out at 20.4 µL/min/1e6 cells; in data set [7], 55.1 µL/min/1e6 cells; in data set [8], 25.8 µL/min/1e6 cells; in [10], 23.5 µL/min/1e6 cells. In addition, the Kp at 6 h in [2] was determined as 1. In addition, the Activity in the data set on Mus musculus [3] is -51%; with Mus musculus [9], -33%. For the same compound, in data set [23], the solubility kinetic was above 20 µM. In data set [6], this compound yielded an area under the curve AUC(0-t) at 6 h of 0.477 µM·h.
In the case of `O=S(=O)(CC[C@@H]1OCC[C@@]2(S(=O)(=O)c3ccc(Cl)cc3)c3c(F)ccc(F)c3OC[C@@H]12)[C@H]1CCNC1`, the concentration for half-maximal inhibition (IC50) against Cytochrome P450 2D6 was above 20 µM; against Cytochrome P450 2C9 it was above 20 µM; at Cytochrome P450 3A4 [4] it was 1 µM; on Cytochrome P450 3A4 [5], 2 µM; in data set [11], 0.0014 µM. Besides, the hepatocyte CLint stood at 34.2 µL/min/1e6 cells in data set [1], 60.5 µL/min/1e6 cells in [7], 18.9 µL/min/1e6 cells in data set [8] and 21.1 µL/min/1e6 cells in [10]. Besides, in data set [2], the Kp at 6 h amounted to 0.3. Further, the figures for the Activity in the data set with Mus musculus [3] and in the data set on Mus musculus [9] were -82% and -56%, respectively. This compound displayed an AUC(0-t) at 6 h in data set [6] of 1.02 µM·h.

(Values after ChEMBL document CHEMBL3867482, “Design and synthesis of water soluble β-aminosulfone analogues of SCH 900229 as γ-secretase inhibitors” (Bioorg Med Chem Lett, 2016).)
